Where no end group is shown, it is not given here. [ ]: non-standard residue; d: D form. pY = N[C@@H](Cc1ccc(OP(=O)(O)O)cc1)C(=O)O

In assay [1] the test system is IL-6/gp130/STAT3 target genes. As to the kind of experiment: RT-PCR of IL-6/gp130/STAT3 acute-phase target genes in IL-6 stimulated HepG2 cells. It is filed as cell-based, human. The conditions noted are these: 1.0 μM, 24 h upon IL-6 stimulation. How it is done: Human hepatoma cells HepG2 were treated as indicated with 1.0 μM gp130-peptide (i.e., IL6-65 represents phosphorothioate elongated SEQ ID NO:4, IL6-96 represents phosphorothioate elongated SEQ ID NO:8, and IL-63 represents phosphorothioate elongated SEQ ID NO:9) for 24 h upon IL-6 stimulation. mRNA was isolated and target gene expression was assessed by RT-PCR. SD shown; T-test: *) P<0.05, **) P<0.01, ***) P<0.001.
Interleukin-6 (IL-6) signaling feeds intracellular STAT3 activity by binding to the extracellular domain of IL-6Ralpha (gp80) recruiting the signaling co-receptors IL-6Rbeta (gp130). IL-6 engagement to these receptors leads to the phosphorylation of 6 tyrosine residues in the cytoplasmic tail of gp130; 3 of those phospho-tyrosines (pY767, pY905 and pY915) serve as the major docking sites recognized by STAT3s SH2 domain initiating STAT3 intracellular signaling. Applicants disclose these three gp130-peptides modified by phosphorothioated ssDNA extension (FIG. 13) considerably reduce expression of a repertoire of IL-6/gp130/STAT3 target genes orchestrating the acute-phase inflammatory response (FIG. 15) once they undergo cellular internalization (FIG. 14).

Assay [2] deals with pY-STAT3. As to the kind of experiment: pY-STAT3 Western blot in IL-6 stimulated HepG2 cells. The assay is classed as cell-based, human. To be noted: 1.0 μM, 30 min prior to IL-6 stimulation. How it is done:
FIG. 16: gp130-peptide treatment of cancer cells inhibits pY-STAT3 activation. Human hepatoma cells HepG2 were treated as indicated with 1.0 μM gp130-peptide peptide (i.e., 2263165 is phosphorothioate elongated SEQ ID NO:4, 1209196 is phosphorothioate elongated SEQ ID NO:8, and 2263163 is phosphorothioate elongated SEQ ID NO:9) for either 30 min prior to IL-6 stimulation. Whole cell lysates were subjected to electrophoretic protein separation and STAT3 activity was assessed by Western blot detecting phospho-tyrosine. Total STAT3 protein staining was included as a loading control.
Human hepatoma cells HepG2 were treated as indicated with 1.0 uM gp130-peptide for either 30 min prior to IL-6 stimulation. Whole cell lysates were subjected to electrophoretic protein separation and STAT3 activity was assessed by Western blot detecting phospho-tyrosine. Total STAT3 protein staining was included as a loading control.
Background: In western blotting, separated proteins are transferred to a membrane and probed.

For assay [3], the system named is IL-6/gp130 signaling; EGFR signaling. As to the kind of experiment: IL-6 versus EGF stimulated signaling in HepG2 cells (STAT3 and MAPK p42/44 Western blot). It is filed as cell-based, human. To be noted: 1.0 μM, 30 min prior to IL-6 or EGF stimulation. How it is done: Human hepatoma cells HepG2 were treated as indicated with 1.0 μM gp130-peptide peptide (i.e., 65 is phosphorothioate elongated SEQ ID NO:4, 96 is phosphorothioate elongated SEQ ID NO:8, and 63 is phosphorothioate elongated SEQ ID NO:9) for either 30 min prior to IL-6 or EGF stimulation. Whole cell lysates were subjected to electrophoretic protein separation and STAT3 as well as MAPK (p42/44) activity was assessed by Western blot. Total STAT3 and MAPK (p42/44) protein staining was included as a loading control.

The test system of assay [4] is survivin (BIRC5) and BclXL (BCL2L1). Briefly: RT-PCR of cancer cell survival genes in HepG2 cells. The assay is classed as cell-based, human. The conditions noted are these: 1.0 μM, 24 h upon IL-6 stimulation. How it is done:
Human hepatoma cells HepG2 were treated as indicated with 1.0 μM gp130-peptide (i.e., IL6-65 represents phosphorothioate elongated SEQ ID NO:4, IL6-96 represents phosphorothioate elongated SEQ ID NO:8, and IL-63 represents phosphorothioate elongated SEQ ID NO:9) for 24 h upon IL-6 stimulation. mRNA was isolated and target gene expression was assessed by RT-PCR. SD shown; T-test: ***) P<0.001.

The subject of assay [5] is W76964 (mouse pancreatic cancer cell line) cells. Briefly: Cell penetration in W76964 cells (flow cytometry). It is filed as cell-based. The conditions noted are these: 1×10^6 cells, 10 μg, 2 hours at 37° C. How it is done: FIGS. 29A-29B: Combination treatment of cell-penetrating Gp130-inhibitory peptide (i.e., Gp130 peptide) and c-MYC-inhibitory peptide (i.e., c-MYC binding peptide) (SEQ ID NO:10) suppresses tumor growth in a syngeneic mouse model of pancreatic cancer. FIG. 29A. […] 1×10^6 cells were incubated with 10 μg of PS-GP130- or PS-c-MYC-peptide for 2 hours at 37° C. […] FIG. 29B. W76964 cells were engrafted in C57BL/6 mice to generate tumors. After tumor size reached approximately 80 mm^3, PO-Gp130 or PS-GP130 was mixed with PS-c-MYC-inhibitory peptide (1:1 ratio) to treat mice systemically (i.v.) at 20 μg every other day. Tumor size was measured by a caliber. Tumor volume was calculated (V=(L×W×W)), where V is tumor volume, W is tumor width, L is tumor length. When some tumors start to reach 600 mm^3, all groups of mice were euthanized at the same time using protocols approved by IACUC of City of Hope. N=6 as indicated.
1×10^6 cells were incubated with 10 μg of PS-GP130- or PS-c-MYC-peptide for 2 hours at 37° C. […] W76964 cells were engrafted in C57BL/6 mice to generate tumors (FIG. 29B). […] Tumor size was measured by a caliber. Tumor volume was calculated (V=(L×W×W)), where V is tumor volume, W is tumor width, L is tumor length. […]

Turning to “PS-1209196: phosphorothioate elongated SEQ ID NO:8, gp130 peptide phosphorylated at tyrosine 905, MPKSpYLPQTV (MPKS[pY]LPQTV; also: phosphorothioate elongation)”, the “expression of IL-6/gp130/STAT3 target genes of the acute-phase inflammatory response” value in assay [1] is on record as “significantly reduces”. Further, the “pY-STAT3 levels / STAT3 activity” value in assay [2] is listed as “inhibitory efficacy”. In assay [3], the “specificity: IL-6/gp130 signaling versus EGF/EGFR signaling” value is “specifically inhibits IL-6/gp130 signaling but not EGFR signaling”. The “expression of survival genes survivin (BIRC5) and BclXL (BCL2L1)” value (“expression of survival genes survivin” for short) in assay [4] is listed as “significantly reduces”.

Take “PS-2263163: phosphorothioate elongated SEQ ID NO:9, gp130 peptide phosphorylated at tyrosine 915, RQGGpYMPQ (RQGG[pY]MPQ; also: phosphorothioate elongation)”: the “expression of IL-6/gp130/STAT3 target genes of the acute-phase inflammatory response” value in assay [1] is recorded as “significantly reduces”. The “pY-STAT3 levels / STAT3 activity” value in assay [2] was “inhibitory efficacy”. For the same substance, the “specificity: IL-6/gp130 signaling versus EGF/EGFR signaling” value in assay [3] is on record as “specifically inhibits IL-6/gp130 signaling but not EGFR signaling”. Besides, the “expression of survival genes survivin” value in assay [4] is “significantly reduces”.

Regarding “PS-2263165: phosphorothioate elongated SEQ ID NO:4, gp130 peptide phosphorylated at tyrosine 767, VHSGpYRHQVPS (VHSG[pY]RHQVPS; also: phosphorothioate elongation)”, the “expression of IL-6/gp130/STAT3 target genes of the acute-phase inflammatory response” value in assay [1] is recorded as “significantly reduces”. Also, in assay [2], the “pY-STAT3 levels / STAT3 activity” value was “inhibitory efficacy”. Also, the “specificity: IL-6/gp130 signaling versus EGF/EGFR signaling” value in assay [3] is given as “specifically inhibits IL-6/gp130 signaling but not EGFR signaling”. Further, the “expression of survival genes survivin” value in assay [4] was “significantly reduces”.

Take “PS-c-MYC-inhibitory peptide: phosphorothioate-conjugated c-MYC binding peptide SEQ ID NO:10 KNDTHQQDIDDLK (also: phosphorothioate-conjugated)”: the “cell penetration, flow cytometry” value in assay [5] is given as “cell penetration”.

For the origin of these results see patent publication US11541121B2, “Phosphorothioate-conjugated peptides and methods of using the same” (CITY OF HOPE, priority 2017, dated 2023).
